Measured values reported in US8933113B2 (Merck Sharp & Dohme Corp., priority 2011, dated 2015).

target: T1, full-length human Mineralocorticoid Receptor (MR) (Homo sapiens, UniProt P08235); test: human MR NH Pro assay (PathHunter Protein:Protein interaction assay), MR antagonist activity; type: cell-based; conditions: PathHunter CHO-K1 cells overexpressing human MR; aldosterone about 0.3 nM; 6 hours at 37° C.; luminescence; read-out: Primary Assay IP rating (IP = inflection point for a given dose-response titration curve)
T1 construct: host or cells: PathHunter CHO-K1 cells
T1 sequence (P08235 1-984): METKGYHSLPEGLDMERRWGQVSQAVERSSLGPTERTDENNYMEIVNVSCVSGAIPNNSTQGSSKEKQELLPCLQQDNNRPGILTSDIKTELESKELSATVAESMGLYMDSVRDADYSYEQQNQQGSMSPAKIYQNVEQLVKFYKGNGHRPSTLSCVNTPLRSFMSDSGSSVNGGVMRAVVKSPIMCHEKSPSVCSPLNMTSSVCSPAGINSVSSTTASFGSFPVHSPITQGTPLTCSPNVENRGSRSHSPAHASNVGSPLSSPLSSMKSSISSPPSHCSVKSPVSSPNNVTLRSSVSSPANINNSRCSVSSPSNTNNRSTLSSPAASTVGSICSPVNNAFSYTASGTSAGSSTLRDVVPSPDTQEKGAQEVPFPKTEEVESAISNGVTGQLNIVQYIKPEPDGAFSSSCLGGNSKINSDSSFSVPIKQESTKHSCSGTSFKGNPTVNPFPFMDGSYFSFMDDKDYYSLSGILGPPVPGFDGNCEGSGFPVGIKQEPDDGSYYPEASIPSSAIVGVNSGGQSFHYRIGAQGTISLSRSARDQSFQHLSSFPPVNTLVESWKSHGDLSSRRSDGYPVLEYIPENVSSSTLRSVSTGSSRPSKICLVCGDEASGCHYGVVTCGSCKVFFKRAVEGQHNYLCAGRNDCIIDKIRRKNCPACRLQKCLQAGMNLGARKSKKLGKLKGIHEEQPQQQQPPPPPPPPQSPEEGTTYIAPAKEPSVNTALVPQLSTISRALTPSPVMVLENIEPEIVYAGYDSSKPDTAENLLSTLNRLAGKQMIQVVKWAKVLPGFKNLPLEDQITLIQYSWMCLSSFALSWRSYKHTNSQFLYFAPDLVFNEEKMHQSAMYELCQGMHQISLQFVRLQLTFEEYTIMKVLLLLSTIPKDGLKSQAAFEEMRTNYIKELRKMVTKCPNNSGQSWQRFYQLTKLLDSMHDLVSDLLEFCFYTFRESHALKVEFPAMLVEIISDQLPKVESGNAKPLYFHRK
Summary of the method: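 PathHunter enzyme-complementation assay in cells of full-length human MR recruitment of a coactivator peptide, run in antagonist mode against aldosterone at about 0.3 to 1.0 nM final. Compounds are in a 10-point, 1:3 series from a 4.4 mM top. Incubation is 6 h at 37° C, then detection reagent for 1 h at RT, with a luminescence read-out.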

| Compound | IC50 [nM] |
| --- | --- |
| COC(=O)C(c1ccc(F)cc1Cl)n1ccc2ccc(Cl)cc21 (stereo not shown) [Compound 14, methyl (2-chloro-4-fluorophenyl)(6-chloro-1H-indol-1-yl)acetate] | 500 to 5000 |
| CC[C@@](c1ccc(Cl)cc1)(c1nnc(C)[nH]1)n1ccc2c(NS(C)(=O)=O)cccc21 [Compound 65, (R)—N-{1-[1-(4-chlorophenyl)-1-(5-methyl-4H-1,2,4-triazol-3-yl)propyl]-1H-indol-4-yl}methanesulfonamide] | 100 to 500 |
| CC[C@](C(=O)NC(C)C)(c1ccc(Cl)cc1)n1ccc2c(NS(C)(=O)=O)cccc21 [Compound 44, (R)-2-(4-chlorophenyl)-N-(1-methylethyl)-2-{4-[(methylsulfonyl)amino]-1H-indol-1-yl}butanamide] | 100 to 500 |
| CCC(c1ccc(Cl)cc1)(c1nc(-c2ccccc2)co1)n1ccc2c(NS(C)(=O)=O)cccc21 (stereo not shown) [Compound 77, N-{1-[1-(4-chlorophenyl)-1-(4-phenyl-1,3-oxazol-2-yl)propyl]-1H-indol-4-yl}methanesulfonamide] | 500 to 5000 |
| CCC(C(=O)OC)(c1ccc(F)cc1Cl)n1ccc2c(NS(C)(=O)=O)cccc21 (stereo not shown) [Compound 31, Methyl 2-(2-chloro-4-fluorophenyl)-2-{4-[(methylsulfonyl)amino]-1H-indol-1-yl}butanoate] | 100 to 500 |
| CC[C@@](c1ccc(Cl)cc1)(c1nnc(C2CC2)o1)n1ccc2c(NS(C)(=O)=O)cccc21 [Compound 67, (R)—N-{1-[1-(4-chlorophenyl)-1-(5-cyclopropyl-1,3,4-oxadiazol-2-yl)propyl]-1H-indol-4-yl}methanesulfonamide] | 100 to 500 |
| CCC(c1ccc(Cl)cc1)(c1nnc(-c2ccccc2)o1)n1ccc2c(NS(C)(=O)=O)cccc21 (stereo not shown) [Compound 70, N-{1-[1-(4-chlorophenyl)-1-(5-phenyl-1,3,4-oxadiazol-2-yl)propyl]-1H-indol-4-yl}methanesulfonamide] | 500 to 5000 |
| CS(=O)(=O)Nc1cccc2c1ccn2C(CC#N)(c1ccc(Cl)cc1)c1nnc(-c2ccccc2)o1 (stereo not shown) [Compound 76, N-{1-[1-(4-chlorophenyl)-2-cyano-1-(5-phenyl-1,3,4-oxadiazol-2-yl)ethyl]-1H-indol-4-yl}methanesulfonamide] | 100 to 500 |
| CCC(c1ccc(Cl)cc1)(c1nnc(-c2cc(F)cc(F)c2)o1)n1ccc2c(NS(C)(=O)=O)cccc21 (stereo not shown) [Compound 75, N-(1-{1-(4-chlorophenyl)-1-[5-(3,5-difluorophenyl)-1,3,4-oxadiazol-2-yl]propyl}-1H-indol-4-yl)methanesulfonamide] | 500 to 5000 |
| COC(=O)C(c1ccc(OC)cc1)n1ccc2c([N+](=O)[O-])cccc21 (stereo not shown) [Compound 5, methyl (4-methoxyphenyl)(4-nitro-1H-indol-1-yl)acetate] | 500 to 5000 |
| CCC(CO)(c1ccc(Cl)cc1)n1ccc2c(NS(C)(=O)=O)cc(F)cc21 (stereo not shown) [Compound 85, N-(1-(2-(4-chlorophenyl)-1-hydroxybutan-2-yl)-6-fluoro-1H-indol-4-yl)methanesulfonamide] | 100 to 500 |
| COC(=O)C(c1ccc(Cl)cc1)n1ncc2c(NS(C)(=O)=O)cccc21 (stereo not shown) [Compound 19, methyl (4-chlorophenyl){4-[(methylsulfonyl)amino]-1H-indazol-1-yl}acetate] | 500 to 5000 |
| CCC(/C=C/C#N)(c1ccc(Cl)cc1)n1ncc2c(N(C(=O)OC(C)(C)C)S(C)(=O)=O)cccc21 (stereo not shown) [Compound 135, (E)-tert-butyl 1-(3-(4-chlorophenyl)-1-cyanopent-1-en-3-yl)-1H-indazol-4-yl(methylsulfonyl) carbamate] | < 100 |
| CC[C@@](c1ccc(Cl)cc1)(c1nnc(C(F)(F)F)[nH]1)n1ccc2c(NS(C)(=O)=O)cccc21 [Compound 66, (R)—N-(1-{1-(4-chlorophenyl)-1-[5-(trifluoromethyl)-4H-1,2,4-triazol-3-yl]propyl}-1H-indol-4-yl)methanesulfonamide] | 100 to 500 |

Other lines, results leading:

| IC50 [nM] | Compound |
| --- | --- |
| < 100 | CCC(CCOS(C)(=O)=O)(c1ccc(Cl)cc1)n1ccc2c(NS(C)(=O)=O)cccc21 (stereo not shown) [Compound 164, 3-(4-Chlorophenyl)-3-(4-(methylsulfonamido)-1H-indol-1-yl)pentyl methanesulfonate] |
| < 100 | CCC(CC#N)(c1ccc(Cl)cc1)n1ccc2c(NS(C)(=O)=O)cccc21 (single isomer, unassigned) [Compound 122, N-(1-(2-(4-chlorophenyl)-1-cyanobutan-2-yl)-1H-indol-4-yl)methanesulfonamide] |
| < 100 | CCC(c1ccc(Cl)cc1)(C(C)O)n1ncc2c(NS(=O)(=O)NC)cccc21 (stereo not shown) [Compound 118] |
| < 100 | CCC(CCCO)(c1ccc(Cl)cc1)n1ccc2c(NS(C)(=O)=O)cccc21 (stereo not shown) [Compound 169, N-(1-(3-(4-chlorophenyl)-6-hydroxyhexan-3-yl)-1H-indol-4-yl)methanesulfonamide] |
| < 100 | CCC(/C=C/C#N)(c1ccc(Cl)cc1)n1ncc2c(NS(C)(=O)=O)cccc21 (stereo not shown) [Compound 129, (E)-N-(1-(3-(4-chlorophenyl)-1-cyanopent-1-en-3-yl)-1H-indazol-4-yl)methanesulfonamide] |
| < 100 | CCC(c1ccc(Cl)cc1)(n1ccc2c(NS(C)(=O)=O)cccc21)C(C)(C)O (single isomer, unassigned) [Compound 91, N-(1-(3-(4-chlorophenyl)-2-hydroxy-2-methylpentan-3-yl)-1H-indol-4-yl)methane sulfonamide] |
| < 100 | CCc1noc(C(CC)(c2ccc(Cl)cc2)n2ccc3c(NS(C)(=O)=O)cccc32)n1 (single isomer, unassigned) [Compound 151, N-(1-(1-(4-chlorophenyl)-1-(3-ethyl-1,2,4-oxadiazol-5-yl)propyl)-1H-indol-4-yl)methanesulfonamide] |
| < 100 | CCC(c1ccc(Cl)cc1)(n1ccc2c(NS(C)(=O)=O)cccc21)C1(O)CC1 (stereo not shown) [Compound 154, N-(1-(1-(4-chlorophenyl)-1-(1-hydroxycyclopropyl)propyl)-1H-indol-4-yl)methanesulfonamide] |
| < 100 | CCC(C#CC#N)(c1ccc(Cl)cc1)n1ccc2c(NS(C)(=O)=O)cccc21 (single isomer, unassigned) [Compound 155, N-(1-(3-(4-chlorophenyl)-1-cyanopent-1-yn-3-yl)-1H-indol-4-yl)methanesulfonamide] |
| < 100 | CCC(C(C)=O)(c1ccc(Cl)cc1)n1ncc2c(NS(C)(=O)=O)cccc21 (single isomer, unassigned) [Compound 100, N-(1-(3-(4-chlorophenyl)-2-oxopentan-3-yl)-1H-indazol-4-yl)methanesulfonamide] |
| < 100 | CCC(c1ccc(Cl)cc1)(C(C)O)n1ncc2c(NS(C)(=O)=O)cccc21 (single isomer, unassigned) [Compound 107] |
| < 100 | CCC(C=C(C)C#N)(c1ccc(Cl)cc1)n1ccc2c(NS(C)(=O)=O)cccc21 (mixture of isomers) [Compound 131, N-(1-(3-(4-chlorophenyl)-5-cyanohex-4-en-3-yl)-1H-indol-4-yl)methanesulfonamide] |
| < 100 | CC[C@@](c1ccc(Cl)cc1)(c1noc(-c2ccc(OC)cc2)n1)n1ccc2c(NS(C)(=O)=O)cccc21 [Compound 61, (R)—N-(1-{1-(4-chlorophenyl)-1-[5-(4-methoxyphenyl)-1,2,4-oxadiazol-3-yl]propyl}-1H-indol-4-yl)methanesulfonamide] |
| < 100 | CCC(c1ccc(Cl)cc1Cl)(C(C)O)n1ccc2c(NS(C)(=O)=O)cccc21 (stereo not shown) [Compound 110, N-(1-(3-(2,4-dichlorophenyl)-2-hydroxypentan-3-yl)-1H-indol-4-yl)methanesulfonamide] |
| < 100 | CCC(/C(C)=C/C#N)(c1ccc(Cl)cc1)n1ccc2c(NS(C)(=O)=O)cccc21 (stereo not shown) [Compound 132, N-(1-(3-(4-Chlorophenyl)-1-cyano-2-methylpent-1-en-3-yl)-1H-indol-4-yl)methanesulfonamide] |
| < 100 | CCC(CC#N)(c1ccc(Cl)cc1)n1ncc2c(NS(C)(=O)=O)cccc21 (single isomer, unassigned) [Compound 123, N-(1-(2-(4-chlorophenyl)-1-cyanobutan-2-yl)-1H-indazol-4-yl)methanesulfonamide] |
| < 100 | CCC(CO)(c1ccc(Cl)cc1)n1ncc2c(NS(C)(=O)=O)cccc21 (single isomer, unassigned) [Compound 88, N-(1-(2-(4-chlorophenyl)-1-hydroxybutan-2-yl)-1H-indazol-4-yl)methanesulfonamide] |
